Results reported in patent US12161643B2, “Stable formulations of SHR0302” (ARCUTIS BIOTHERAPEUTICS, INC., priority 2021, dated 2024).

Key:
[1] = Solubility of SHR0302 in water at varying pH values in a phosphate buffer; assay type: physicochemical; conditions: phosphate buffer system; FIG. 1
Method: The solubility of SHR0302 was determined in water at varying pH values in a phosphate buffer. FIG. 1 illustrates a plot of SHR0302 (also known as ARQ-250) concentration in μg/mL in water as a function of pH in a phosphate buffer system.

[2] = Solubility of SHR0302 in water at varying pH values in phosphate and citrate buffer systems; assay type: physicochemical; conditions: FIG. 2
Method: The solubility of SHR0302 was determined in water at varying pH values in various buffer systems. FIG. 2 illustrates a plot of SHR0302 concentration in μg/mL in water as a function of pH in two phosphate buffer systems and a citrate buffer system.

[3] = target: JAK1 (Homo sapiens, UniProt P23458); conditions: cited from earlier work
Chain of JAK1 (P23458 whole entry): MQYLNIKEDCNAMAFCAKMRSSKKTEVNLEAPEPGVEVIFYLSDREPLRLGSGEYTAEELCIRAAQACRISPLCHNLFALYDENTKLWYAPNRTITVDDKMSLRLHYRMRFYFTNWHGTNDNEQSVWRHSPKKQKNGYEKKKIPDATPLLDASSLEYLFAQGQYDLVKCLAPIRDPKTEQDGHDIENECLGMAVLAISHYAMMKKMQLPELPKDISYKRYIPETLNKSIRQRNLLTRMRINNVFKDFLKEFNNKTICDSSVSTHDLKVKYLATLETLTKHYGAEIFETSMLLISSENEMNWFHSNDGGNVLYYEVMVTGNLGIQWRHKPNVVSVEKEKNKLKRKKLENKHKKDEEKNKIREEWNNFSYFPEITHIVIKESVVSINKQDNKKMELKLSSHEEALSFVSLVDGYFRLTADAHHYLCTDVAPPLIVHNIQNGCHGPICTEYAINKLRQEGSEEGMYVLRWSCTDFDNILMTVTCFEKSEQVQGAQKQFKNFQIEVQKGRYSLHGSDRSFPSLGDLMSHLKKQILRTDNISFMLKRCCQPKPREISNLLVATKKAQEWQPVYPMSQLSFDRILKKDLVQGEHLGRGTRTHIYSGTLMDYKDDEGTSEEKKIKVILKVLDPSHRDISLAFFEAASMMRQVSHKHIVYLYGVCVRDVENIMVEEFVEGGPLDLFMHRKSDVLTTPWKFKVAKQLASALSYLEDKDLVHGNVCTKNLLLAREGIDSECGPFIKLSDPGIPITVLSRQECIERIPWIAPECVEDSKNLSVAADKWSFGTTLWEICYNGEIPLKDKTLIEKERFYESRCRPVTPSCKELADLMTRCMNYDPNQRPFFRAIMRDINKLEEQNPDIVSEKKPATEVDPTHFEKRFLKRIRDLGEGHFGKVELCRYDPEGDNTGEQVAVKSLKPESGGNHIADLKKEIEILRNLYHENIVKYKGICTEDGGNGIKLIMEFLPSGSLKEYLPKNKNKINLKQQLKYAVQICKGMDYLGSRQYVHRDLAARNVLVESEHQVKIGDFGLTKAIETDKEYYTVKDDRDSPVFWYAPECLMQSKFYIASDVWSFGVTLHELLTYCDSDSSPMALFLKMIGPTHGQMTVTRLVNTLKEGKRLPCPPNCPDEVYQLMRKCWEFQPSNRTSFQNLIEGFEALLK

solubility in water as a function of pH [1]: decreases as pH levels increase | solubility in water as a function of pH [2]: decreases as pH levels increase
SMILES: COc1nsc(NC(=O)N2C[C@H]3C[C@H](N(C)c4ncnc5[nH]ccc45)C[C@H]3C2)n1 [SHR0302, (3aR,5S,6aS)—N-(3-methoxyl-1,2,4-thiadiazol-5-yl)-5-(methyl(7H-pyrrolo[2,3-d]pyrimidin-4-yl)amino)hexahydrocyclopenta[c]pyrrole-2(1H)-carboxamide]
selectivity for JAK1 over JAK2 ([3]; JAK1 over JAK2): high selectively for JAK1 over JAK2 | inhibition of JAK1 [3]: potent
